From patent US20220289746A1, “PYRROLIDINE DERIVATIVES” (Hoffmann-La Roche Inc., priority 2019, published 2022)

Columns and labels:
[1] = target: T1, human M4 receptor (Homo sapiens, UniProt P08173); assay: Calcium flux assay using fluorescent imaging (M4 PAM FLIPR assay); type: cell-based; set-up: expressed in transfected cells; host or cells: CHO (monoclonal line, clone 2); conditions: Table 1; CHO cells expressing human M4+Gqi5; acetylcholine EC20
T1 sequence (P08173 1-479): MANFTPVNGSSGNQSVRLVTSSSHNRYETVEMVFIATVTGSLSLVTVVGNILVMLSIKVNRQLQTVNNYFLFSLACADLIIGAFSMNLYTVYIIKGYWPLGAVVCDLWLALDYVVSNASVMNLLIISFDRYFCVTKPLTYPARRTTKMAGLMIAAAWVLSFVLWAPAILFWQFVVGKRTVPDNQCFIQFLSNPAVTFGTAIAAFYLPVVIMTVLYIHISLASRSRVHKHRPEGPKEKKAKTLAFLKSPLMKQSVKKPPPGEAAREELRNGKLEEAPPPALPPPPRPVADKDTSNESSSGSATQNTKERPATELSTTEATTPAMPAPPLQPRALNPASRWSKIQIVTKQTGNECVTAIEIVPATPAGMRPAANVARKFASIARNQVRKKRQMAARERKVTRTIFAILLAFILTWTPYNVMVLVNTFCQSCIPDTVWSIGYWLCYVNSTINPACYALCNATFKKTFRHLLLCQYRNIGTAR
Protocol: CHO cells were transfected with expression plasmid encoding the human M4 receptor and a Gqi5 construct to redirect Gi signaling to calcium. Stable cells were cloned by limiting dilution to yield a monoclonal cell line expressing human M4+Gqi5 (clone 2). The stable cells were grown in DMEM containing 10% FBS, 200 ug/ml Geneticin and 800 ug/ml Hygromycin at 37° C. in a 10% CO2 incubator at 95% humidity.
Calcium Flux Assay Using Fluorescent Imaging (“M4 PAM FLIPR” Assay)
On the afternoon before the assay, cells were plated at a density of 50,000 cells/well into black 96 well plates with clear bottoms to yield a confluent monolayer the next day. Hanks balanced salt solution, without phenol red, containing 20 mM HEPES (pH 7.3) and 2.5 mM probenecid (assay buffer) was prepared fresh for each experiment. Compound dilutions were made using a Beckman Biomek 2000 laboratory automation workstation, in assay buffer. The dye-loading buffer consisted of a final concentration of 2 μM Fluo-4-AM (dissolved in DMSO and pluronic acid) and 65 μg/ml amidoblack in assay buffer. The existing culture media was removed from the wells and 100 μl of the dye-loading buffer was added to each well and incubated for approximately 90 min at 37° C. in a 5% CO2 incubator at 95% humidity.
Calcium flux in the dye-loaded cells was measured with the fluorescence reader Hamamatsu FDSS 7000. To test compounds as agonists, compound addition (25 μl) was made 10 s into the fluorescent measurements and fluorescent response was recorded for 3 minutes. The fluorescence data was expressed as percentage of the fluorescence obtained by an EC100 concentration (3 μM) of the endogenous full agonist acetylcholine. Each test compound concentration-response curve was constructed using a four parameter logistic equation in Microsoft Excel XLFit as follows:
Y=Minimum+((Maximum−Minimum)/(1+10^(LogEC50−X)nH)).
The concentration of agonist that produced a half-maximal response is represented by the EC50 value. Maximum and minimum are the maximum and minimum fluorescence signal in % respectively. nH is the Hill slope.
To measure positive allosteric modulator activity 25 μl of an EC20 concentration of the endogenous agonist acetylcholine is added to the cells already pre-incubated with the test compound for 15 minutes.
The M4 PAM dose response is constructed using the agonist dose-response equation above. The concentration of PAM that produced a half-maximal response is represented by the EC50 value and the maximum signal measured is the PAM efficacy expressed in % of the EC100 (3 μM) acetylcholine response. • cAMP Assay for M4 Positive Allosteric Modulators (“M4 PAM cAMP” Assay)

[2] = target: T1, human M4 receptor; assay: cAMP assay for M4 positive allosteric modulators (M4 PAM cAMP assay); type: cell-based; set-up: expressed in transfected cells; host or cells: CHO-K1; conditions: Table 1; CHO-K1 cells expressing human M4; forskolin 7.5 μM + acetylcholine EC20 (0.2 nM)
Protocol: The potency of M4 PAMs was determined using a cell-based cyclic adenosine monophosphate assay. The assay was performed with CHO-Kl cells stably expressing untagged human M4 receptor and cAMP was quantified using the Nano-TRF Detection Assay kit (Roche, Cat. No. 05214386) as described in the kit instructions. The cells were grown in Ham's F-12 Nutrient mix supplemented with 10% FBS and 200 μg/ml geneticin until they reached 80% confluency. The cells were washed with PBS, detached with accutase and resuspended in assay buffer consisting of HBSS and 0.1% BSA. They were then seeded in black 384-well plates (Corning, Cat. No. 3764) at a density of 20,000 cells/20 μl per well until the addition of compounds.
Test compounds were serially diluted 1:2 in 100% DMSO and spotted in 384-well plates at 0.5 μl/well. The compounds were then diluted in water containing IBMX (Sigma, Cat. No. 17018) and a sample (5 μl) was added to the cells for 15 minutes at 37° C./5% CO2. After this incubation the cells were stimulated with a combination of forskolin (7.5 μM) and acetylcholine EC20 (0.2 nM) in assay buffer for 30 minutes at 37° C./5% CO2. The assay was stopped by adding cAMP detection mix (15 μl/well, containing detergents for cell lysis) for one hour at RT.
The test plates were read using a SpectraMax i3x reader (Molecular Devices). The exported raw data was used to calculate the FRET signal based on the P-factor as per cAMP kit instructions. The data was normalized to the activity of acetylcholine plus forskolin, with 2 nM of acetylcholine plus 7.5 μM forskolin defined as 100% activity. Dose response curves were fitted to the percent activity data of the compounds using a sigmoidal dose response model (XLfit, IDBS) and the data were reported as EC50 and percent efficacy.

| EC50 [1] | EC50 [2] | Compound |
| --- | --- | --- |
| 550 nM | 131 nM | Cc1nc2c(c(C)c1Cl)CN(C(=O)[C@@H]1CCN(c3ccnc(C(F)(F)F)c3)C1)C2 [Example 21, (3-chloro-2,4-dimethyl-5,7-dihydropyrrolo[3,4-b]pyridin-6-yl)-[(3R)-1-[2-(trifluoromethyl)-4-pyridyl]pyrrolidin-3-yl]methanone] |
| 677 nM | 507 nM | COc1cc(N2CC[C@@H](C(=O)N3Cc4nc(C)c(Cl)c(C)c4C3)C2)ccn1 [Example 22, (3-chloro-2,4-dimethyl-5,7-dihydropyrrolo[3,4-b]pyridin-6-yl)-[(3R)-1-(2-methoxy-4-pyridyl)pyrrolidin-3-yl]methanone] |
| 907 nM | 791 nM | Cc1nc2c(c(C)c1Cl)CN(C(=O)[C@@H]1CCN(c3ccnc(C(F)(F)F)n3)C1)C2 [Example 23, (3-chloro-2,4-dimethyl-5,7-dihydropyrrolo[3,4-b]pyridin-6-yl)-[(3R)-1-[2-(trifluoromethyl)pyrimidin-4-yl]pyrrolidin-3-yl]methanone] |
| 235 nM | 164 nM | Cc1nc2c(c(C)c1Cl)CN(C(=O)[C@@H]1CCN(c3ccnc(C#N)n3)C1)C2 [Example 24, 4-[(3R)-3-(3-chloro-2,4-dimethyl-5,7-dihydropyrrolo[3,4-b]pyridine-6-carbonyl)pyrrolidin-1-yl]pyrimidine-2-carbonitrile] |
| 1600 nM | 4770 nM | COc1nccc(N2CC[C@@H](C(=O)N3Cc4nc(C)c(Cl)c(C)c4C3)C2)n1 [Example 25, (3-chloro-2,4-dimethyl-5,7-dihydropyrrolo[3,4-b]pyridin-6-yl)-[(3R)-1-(2-methoxypyrimidin-4-yl)pyrrolidin-3-yl]methanone] |
| 166 nM | 120 nM | Cc1cc(N2CC[C@@H](C(=O)N3Cc4nc(C)c(Cl)c(C)c4C3)C2)ncn1 [Example 26, (3-chloro-2,4-dimethyl-5,7-dihydropyrrolo[3,4-b]pyridin-6-yl)-[(3R)-1-(6-methylpyrimidin-4-yl)pyrrolidin-3-yl]methanone] |
| 330 nM | 230 nM | Cc1nc2c(c(C)c1Cl)CN(C(=O)[C@@H]1CCN(c3cc(C(F)(F)F)ncn3)C1)C2 [Example 27, (3-chloro-2,4-dimethyl-5,7-dihydropyrrolo[3,4-b]pyridin-6-yl)-[(3R)-1-[6-(trifluoromethyl)pyrimidin-4-yl]pyrrolidin-3-yl]methanone] |
| 350 nM | 259 nM | Cc1nc2c(c(C)c1Cl)CN(C(=O)[C@@H]1CCN(c3cc(C4CC4)ncn3)C1)C2 [Example 28, (3-chloro-2,4-dimethyl-5,7-dihydropyrrolo[3,4-b]pyridin-6-yl)-[(3R)-1-(6-cyclopropylpyrimidin-4-yl)pyrrolidin-3-yl]methanone] |
| 591 nM | 951 nM | COc1cc(N2CC[C@@H](C(=O)N3Cc4nc(C)c(Cl)c(C)c4C3)C2)ncn1 [Example 29, (3-chloro-2,4-dimethyl-5,7-dihydropyrrolo[3,4-b]pyridin-6-yl)-[(3R)-1-(6-methoxypyrimidin-4-yl)pyrrolidin-3-yl]methanone] |
| 59 nM | 65 nM | Cc1nc2c(c(C)c1Cl)CN(C(=O)[C@@H]1CCN(c3cncnc3)C1)C2 [Example 30, (3-chloro-2,4-dimethyl-5,7-dihydropyrrolo[3,4-b]pyridin-6-yl)-[(3R)-1-pyrimidin-5-ylpyrrolidin-3-yl]methanone] |
| 388 nM | 482 nM | Cc1ncc(N2CC[C@@H](C(=O)N3Cc4nc(C)c(Cl)c(C)c4C3)C2)cn1 [Example 31, (3-chloro-2,4-dimethyl-5,7-dihydropyrrolo[3,4-b]pyridin-6-yl)-[(3R)-1-(2-methylpyrimidin-5-yl)pyrrolidin-3-yl]methanone] |
| 1950 nM | 1940 nM | Cc1nc2c(c(C)c1Cl)CN(C(=O)[C@@H]1CCN(c3cnc(C(F)(F)F)nc3)C1)C2 [Example 32, (3-chloro-2,4-dimethyl-5,7-dihydropyrrolo[3,4-b]pyridin-6-yl)-[(3R)-1-[2-(trifluoromethyl)pyrimidin-5-yl]pyrrolidin-3-yl]methanone] |
| 2370 nM | 242 nM | COc1ncc(N2CC[C@@H](C(=O)N3Cc4nc(C)c(Cl)c(C)c4C3)C2)cn1 [Example 33, (3-chloro-2,4-dimethyl-5,7-dihydropyrrolo[3,4-b]pyridin-6-yl)-[(3R)-1-(2-methoxypyrimidin-5-yl)pyrrolidin-3-yl]methanone] |
| 575 nM | 603 nM | Cc1nc2c(c(C)c1Cl)CN(C(=O)[C@@H]1CCN(c3cnc(C4COC4)nc3)C1)C2 [Example 34, (3-chloro-2,4-dimethyl-5,7-dihydropyrrolo[3,4-b]pyridin-6-yl)-[(3R)-1-[2-(oxetan-3-yl)pyrimidin-5-yl]pyrrolidin-3-yl]methanone] |
| 1060 nM | 817 nM | CNc1ncc(N2CC[C@@H](C(=O)N3Cc4nc(C)c(Cl)c(C)c4C3)C2)cn1 [Example 35, (3-chloro-2,4-dimethyl-5,7-dihydropyrrolo[3,4-b]pyridin-6-yl)-[(3R)-1-[2-(methylamino)pyrimidin-5-yl]pyrrolidin-3-yl]methanone] |
| 1800 nM | 1720 nM | Cc1nc2c(c(C)c1Cl)CN(C(=O)[C@@H]1CCN(c3cnc(N(C)C)nc3)C1)C2 [Example 36, (3-chloro-2,4-dimethyl-5,7-dihydropyrrolo[3,4-b]pyridin-6-yl)-[(3R)-1-[2-(dimethylamino)pyrimidin-5-yl]pyrrolidin-3-yl]methanone] |
| 394 nM | 405 nM | Cc1ncncc1N1CC[C@@H](C(=O)N2Cc3nc(C)c(Cl)c(C)c3C2)C1 [Example 37, (3-chloro-2,4-dimethyl-5,7-dihydropyrrolo[3,4-b]pyridin-6-yl)-[(3R)-1-(4-methylpyrimidin-5-yl)pyrrolidin-3-yl]methanone] |
| 274 nM | 332 nM | Cc1nc2c(c(C)c1Cl)CN(C(=O)[C@@H]1CCN(c3ccnnc3)C1)C2 [Example 38, (3-chloro-2,4-dimethyl-5,7-dihydropyrrolo[3,4-b]pyridin-6-yl)-[(3R)-1-pyridazin-4-ylpyrrolidin-3-yl]methanone] |
